Read-outs that look alike come from different tables or passages of the source.

The nature of data set [1]: RSG and INT131 concentrations in plasma and tissue after a single oral dose (UHPLC-MS/MS). It is filed as in vivo, DIO mice. To be noted: for average residency time: blood concentration-time profile, pre-test, single oral gavage RSG 10 mg kg−1 or INT131 30 mg kg−1; for Tmax: C57BL/6, mouse, po, 30 mg/kg, read-out: time of peak concentration.
The subject of the next data set is PPARγ target genes. The data set can be described thus: Real-time PCR gene expression in tissues of treated DIO and db/db mice. It is filed as in vivo. The conditions noted are these: for expression of BAT marker genes (Ucp1, Cidea, Elove3, Cox7a, Cox8b) and adipogenesis and lipogenesis genes (aP2, adiponectin, Lpl, Cd36) in BAT: more pronounced in the INT131 group; for expression of adipogenesis and fatty acid metabolism genes in sWAT and eWAT / levels of macrophage markers Cd68 and F4/80, pro-inflammatory cytokines IL-6 and TNFα and chemokine Mcp1 / Ucp1, Elove3 and aP2 gene expression in skeletal muscle: DIO and db/db mice; for expression of adipogenesis and fatty acid metabolism genes in sWAT and eWAT / levels of macrophage markers Cd68 and F4/80, pro-inflammatory cytokines IL-6 and TNFα and chemokine Mcp1: sWAT and eWAT. As for the experimental part:
Total RNA was isolated from tissues with a High-Purity Total RNA Extraction Kit (BioTeke Corporation, Beijing, China) according to the manufacturer's instructions. RNA was reverse-transcribed into cDNA with a High Capacity cDNA Reverse Transcription Kit (Transgenes Corporation, Beijing, China). Real-time PCR was carried out on an ABI 7300 Real-time PCR System (Applied Biosystems, Foster City, CA, USA) using SYBR Green PCR Master Mix (Roche Molecular Biochemicals, Mannheim, Germany). Relative gene expression levels were normalized to the β-actin gene and quantified by using the 2^−ΔΔCt method. Primer sequences are listed in (Supplementary Table 1).
Background: In qPCR the cycle at which signal appears reflects the starting amount.

For another data set, the system named is DIO mice. The data set can be described thus: Three-week oral treatment of insulin-resistant DIO mice (OGTT, FBG, serum factors, organ indices, liver lipids, histology). The conditions noted are these: for body weight and WAT: RSG 10 mg kg−1, INT131 30 mg kg−1; for serum adiponectin / serum pro-inflammatory cytokines MCP-1 and IL-6: multiplex detection; for morphology of hepatocyte and hepatic lipid content: vs vehicle-treated. The class given is in vivo. As for the experimental part:
All animal experiments were performed according to procedures approved by the Animal Experimentation Ethics Committee of the Beijing Institute of Pharmacology and Toxicology for animal care, handling and termination. Eight-week-old male homozygous C57BLKS/J db/db mice were obtained from the Model Animal Research Centre of Nanjing University (Nanjing, China) and fed a standard mouse diet. Male C57BL/6 mice (4 weeks old) were obtained from the Laboratory Animal Centre of the Beijing Institute of Pharmacology and Toxicology and fed a high-fat, high-sugar diet for 16 weeks to induce diet-induced obesity (DIO). […] Compounds were dissolved in DMSO and suspended in 0.5% carboxymethylcellulose. Body weight (BW) and fasting blood glucose were recorded regularly during the treatment period. After 14 d of treatment, db/db mice were subjected to insulin tolerance tests (ITT) and fasted for 6 h prior to the intraperitoneal (i.p.) injection of 1 U kg^−1 insulin, and blood glucose was estimated at the indicated time points. […] Blood glucose was monitored at 0, 30, 60, 90, and 120 min after the oral administration of 1 g kg^−1 dextrose. […] Interscapular brown adipose tissue (iBAT), epididymal white adipose tissue (eWAT), subcutaneous inguinal white adipose tissue (sWAT), liver and skeletal muscle were excised, weighed and rapidly frozen in liquid nitrogen for subsequent gene expression and western blot analysis.
(§1) Serum triglyceride (TG), cholesterol, free fatty acid (FFA), and glucose levels were measured by using commercial kits (Nanjing Jiancheng Bioengineering Institute, Nanjing, China) according to the manufacturer's instructions. Serum adiponectin, monocyte chemotactic protein 1(MCP1), Interleukin-6 (IL-6), Receptor activator of nuclear factor kappa-B ligand (RANKL), and Adrenocorticotropic Hormone (ACTH) were quantified using a multiplex Luminex assay (Millipore/Linco Research).
To determine TG and total cholesterol levels in the liver, 50 mg of frozen tissue was homogenized with a TissueLyserII (Qiagen, Germantown, MD, USA) in 1 ml of chloroform/methanol (2:1, v/v), after which 200 μL of 0.05 M KCl was added, and the solution was centrifuged at 5,000 rpm for 10 min. The aqueous phase was removed, and the organic phase was filtered and dried by nitrogen flushing. After evaporation of the chloroform under nitrogen, lipid samples were resuspended in isopropyl alcohol, and TG and total cholesterol content were determined with enzymatic assays.
sWAT, iBAT, and liver samples were fixed, embedded in paraffin and sectioned. Sections were cut at a thickness of […] and stained with haematoxylin/eosin (HE). Liver sections as well as adipose sections from at least 3 mice per group were also stained with HE. Adipocyte (n = 100 adipocytes) diameter was measured using Image J software, and the average diameter was recorded for each animal.

The test system of the next data set is PRDM16. Kind of data set: Western blot of PRDM16 protein in sWAT of treated mice. The class given is in vivo. The conditions noted are these: DIO and db/db mice. The text has this:
To obtain tissue lysates, eWAT and sWAT were homogenized in 10% sodium dodecyl sulfate buffer containing protease and phosphatase inhibitors. An antibody targeting PR domain containing 16 (PRDM16) (Abcam) was used for western blotting. Bands were detected with ECL enhanced chemiluminescence detection reagents (Applygen, Beijing, China) and scanned with an Alpha Imager 5500 (Alpha Innotech, San Leandro, CA, USA) imaging densitometer.
On the technique in general: A western blot detects proteins with antibodies after separation by electrophoresis.

The subject of another data set is C2C12 cells. The data set can be described thus: Conversion of myogenic C2C12 cells to adipocytes (gene expression). The class given is cell-based. To be noted: 10 μM for 5 d after confluence, in the same manner as RSG.
The subject of another data set is db/db mice. The data set can be described thus: Three-week oral treatment of diabetic db/db mice (FBG, ITT, serum parameters, organ indices). The class given is in vivo. As for the experimental part: All animal experiments were performed according to procedures approved by the Animal Experimentation Ethics Committee of the Beijing Institute of Pharmacology and Toxicology for animal care, handling and termination. Eight-week-old male homozygous C57BLKS/J db/db mice were obtained from the Model Animal Research Centre of Nanjing University (Nanjing, China) and fed a standard mouse diet. Male C57BL/6 mice (4 weeks old) were obtained from the Laboratory Animal Centre of the Beijing Institute of Pharmacology and Toxicology and fed a high-fat, high-sugar diet for 16 weeks to induce diet-induced obesity (DIO). […] Body weight (BW) and fasting blood glucose were recorded regularly during the treatment period. […] Blood glucose was monitored at 0, 30, 60, 90, and 120 min after the oral administration of 1 g kg^−1 dextrose. […]
as §1

The test system of data set [2] is diabetic Zucker (fa/fa) fatty rats. More on the design: method as in prior studies in rodents. The conditions noted are these: 3 mg kg−1 day−1 INT131 vs 1 mg kg−1 RSG, ref prior studies in rodents; cited from earlier work.
Data set [3] relates to mouse 3T3-L1 preadipocytes. The data set can be described thus: Differentiation of mouse 3T3-L1 preadipocytes. It is filed as cell-based. The conditions noted are these: we and others (Motani et al., 2009).
Setting [4] is: all assayed tissues, DIO mice, RSG 10 mg kg−1 oral.

For the molecule `CN(CCOc1ccc(CC2SC(=O)NC2=O)cc1)c1ccccn1` (stereo not shown) [RSG, 5-[[4-[2-[methyl(pyridin-2-yl)amino]ethoxy]phenyl]methyl]-1,3-thiazolidine-2,4-dione], in data set [1] (setting [4]), the “time of peak concentration (Cmax)” value came to 0.5 h and the “tissue concentration by 12 h” value is recorded as “almost negligible”. For the same molecule, the average residency time in data set [1] is 4.03 ± 0.83 h. In addition, the “expression of BAT marker genes (Ucp1, Cidea, Elove3, Cox7a, Cox8b) and adipogenesis and lipogenesis genes (aP2, adiponectin, Lpl, Cd36) in BAT” value in the data set on PPARγ target genes (DIO mice) is “substantially up-regulation”. Further, in the data set on PPARγ target genes (liver, DIO mice), the “expression of adipocyte-specific genes aP2, adipsin, adiponectin, cidea and cidec in the liver” value was “robustly up-regulated”; the “expression of genes of lipogenesis (Acc) and fatty acid uptake (Cd36) in the liver” value is on record as “dramatically stimulated”; the “expression of the key gluconeogenesis gene (Pepck) in the liver” value was “inhibited”. In the data set on PPARγ target genes (liver, DIO mice, RSG rather than INT131), the “expression of fatty acid oxidation genes Cpt1b and Pdk4 in the liver” value was “marked up-regulation”. Besides, in the data set with PPARγ target genes, the “expression of adipogenesis and fatty acid metabolism genes in sWAT and eWAT” value is given as “similarly up-regulated”; the “levels of macrophage markers Cd68 and F4/80, pro-inflammatory cytokines IL-6 and TNFα and chemokine Mcp1” value is given as “comparably reduced”; the “Ucp1, Elove3 and aP2 gene expression in skeletal muscle” value is recorded as “enhanced”. In the data set with DIO mice, the “body weight and WAT” value is given as “no impact”; the serum adiponectin result was “equal elevation”; the “serum pro-inflammatory cytokines MCP-1 and IL-6” value was “decreased levels”; the “morphology of hepatocyte and hepatic lipid content” value was “dramatically aggravated hepatic hypertrophy and increased lipid accumulation”. Moreover, the “sizes of expanded adipocytes in the sWAT” value in the data set on DIO mice (HE staining) is “markedly decreased”. Further, the “PRDM16 protein levels in sWAT” value in the data set with PRDM16 is “markedly increased”.
On to `O=S(=O)(Nc1cc(Cl)c(Oc2cnc3ccccc3c2)c(Cl)c1)c1ccc(Cl)cc1Cl` [INT131, 2,4-dichloro-N-[3,5-dichloro-4-(quinolin-3-yloxy)phenyl] benzene sulfonamide], for which, in data set [1] (plasma and liver), the Tmax came to 0.5 h. Further, the Tmax in data set [1] (skeletal muscle, eWAT, sWAT, BAT) came out at 4 h. Moreover, the average residency time in data set [1] amounted to 4.4 ± 1.17 h. The “switch of myogenic cells to adipocytes (adipogenesis and myogenesis gene expression)” value with C2C12 cells is reported as “able to switch myogenic cells to adipocytes”. Besides, in the data set on db/db mice (10 and 30 mg kg−1 INT131 vs 10 mg kg−1 RSG), the “body weight gain compared with RSG” value was “equal body weight gains”. Further, the “fasting blood glucose (FBG)” value in the data set with db/db mice (INT131 10 or 30 mg kg−1 by gavage once daily, within 1 week of treatment) is reported as “lowered fasting blood glucose (FBG) in a dose-dependent manner”. In the data set on PPARγ target genes (DIO mice), the “expression of BAT marker genes (Ucp1, Cidea, Elove3, Cox7a, Cox8b) and adipogenesis and lipogenesis genes (aP2, adiponectin, Lpl, Cd36) in BAT” value is given as “substantially up-regulation”. In the data set with PPARγ target genes (liver, DIO mice), the “Cd36 expression in the liver” value is recorded as “only slightly induced an increase”; the “expression of aP2, adiponectin and cidec in the liver” value is recorded as “did not induce”; the “induction of adipsin and cidea in the liver compared with RSG” value is reported as “to a lesser degree”. In the data set with PPARγ target genes, the “expression of adipogenesis and fatty acid metabolism genes in sWAT and eWAT” value is given as “similarly up-regulated”; the “levels of macrophage markers Cd68 and F4/80, pro-inflammatory cytokines IL-6 and TNFα and chemokine Mcp1” value is given as “comparably reduced”; the “Ucp1, Elove3 and aP2 gene expression in skeletal muscle” value is “enhanced”. In the data set on DIO mice (30 mg kg−1 INT131), the hepatic weight result is reported as “did not induce an increase”. Also, the “brown adipocyte hypertrophy (adipocyte size and area in BAT)” value in the data set with DIO mice (BAT, HE staining) is reported as “more severe brown adipocyte hypertrophy”. Besides, in the data set with DIO mice, the “body weight and WAT” value is on record as “no impact”; the serum adiponectin result was “equal elevation”; the “serum pro-inflammatory cytokines MCP-1 and IL-6” value is recorded as “decreased levels”; the “morphology of hepatocyte and hepatic lipid content” value is “no impact”. The “sizes of expanded adipocytes in the sWAT” value with DIO mice (HE staining) is listed as “markedly decreased”. In addition, the “blood glucose lowering effects compared with RSG” value in data set [2] is reported as “identical”. For the same molecule, the “PRDM16 protein levels in sWAT” value in the data set on PRDM16 was “markedly increased”. In addition, the “promoting the differentiation of preadipocytes, compared with RSG” value in data set [3] is “weaker effects”.

The values above are taken from article PMC5447729 (Frontiers in Pharmacology, 2017).
